Calls of active or inactive are those of the source. The rule behind the calls is not given here.
Tests used:
HCT-116 = assay: Antiproliferative activity against human HCT-116 cells assessed as inhibition of cell growth incubated for 48 hrs by MTT assay; format: functional, cell-based; conditions: HCT-116, 48 h
KYSE-30 = assay: Antiproliferative activity against human KYSE-30 cells assessed as inhibition of cell growth incubated for 48 hrs by MTT assay; format: functional, cell-based; conditions: KYSE-30, 48 h
MGC-803 [1] = assay: Antiproliferative activity against human MGC-803 cells assessed as reduction in cell viability incubated for 12 to 48 hrs by MTT assay; format: functional, cell-based; conditions: dose 20-80 µM, time 12-48 hrs
MGC-803 [2] = assay: Antiproliferative activity against human MGC-803 cells assessed as reduction in cell viability at 20 to 80 nmol/L by MTT assay; format: functional, cell-based; conditions: dose 20-80 nmol/L, time 12-48 hrs, TDE = time-dependent effect
MGC-803 [3] = assay: Antiproliferative activity against human MGC-803 cells assessed as increase in nuclear concentration at 10 to 40 nmol/L incubated for 48 hrs by DAPI staining based fluorescence microscopic analysis; format: functional, cell-based; conditions: dose 10-40 nmol/L
MGC-803 [4] = assay: Antiproliferative activity against human MGC-803 cells assessed as decrease in cell damage at 10 to 40 nmol/L incubated for 48 hrs by bright field microscopic analysis; format: functional, cell-based; conditions: dose 10-40 nmol/L
MGC-803 [5] = assay: Antiproliferative activity against human MGC-803 cells assessed as increase in proportion of dead cells at 10 to 40 nmol/L incubated for 48 hrs by Calcein-AM/propidium iodide staining based fluorescence microscopic analysis; format: functional, cell-based; conditions: dose 10-40 nmol/L
Tubulin (Homo sapiens) [6] = molecular target: T1, Tubulin (Homo sapiens) (UniProt P68371+Q9H4B7+P0DPH7+P68366+Q13509+Q71U36+P04350+Q3ZCM7+P07437+P68363+Q9BQE3+Q6PEY2+Q13885+Q9BVA1+Q9BUF5); assay: Inhibition of tubulin polymerization (unknown origin) at 3 uM by fluorescence plate reader analysis; format: protein-complex assay
Tubulin (Homo sapiens) [7] = molecular target: T1, Tubulin (Homo sapiens); assay: Inhibition of tubulin polymerization (unknown origin) at 1 to 3 uM by fluorescence plate reader analysis; format: protein-complex assay; conditions: dose 1-3 µM
[8] = molecular target: T2, Tubulin beta (Homo sapiens) (UniProt P68371+Q9H4B7+Q13509+P04350+Q3ZCM7+P07437+Q13885+Q9BVA1+Q9BUF5+A6NNZ2); assay: Binding affinity to beta-tubulin (unknown origin) colchicine binding site assessed as reduction in beta-tubulin-EBI adduct at 10 to 30 uM incubated for 2 hrs in presence of EBI by Western blotting; format: protein assay; conditions: dose 10-30 µM
[9] = molecular target: T2, Tubulin beta (Homo sapiens); assay: Binding affinity to beta-tubulin (unknown origin) assessed as increase in alkaline protease level at 1 to 100 uM preincubated for 1 hr followed by alkaline protease addition and measured after 15 mins by Western blotting analysis; format: protein assay; conditions: dose 1-100 µM, time 75.0 min
MGC-803 [10] = assay: Induction of cell cycle arrest in human MGC-803 cells at M phase assessed as increase in p-Histone H3 level at 10 to 40 nmol/L incubated for 48 hrs by Western blotting; format: functional, cell-based; conditions: dose 10-40 nmol/L
MGC-803 [11] = assay: Inhibition of colony formation in human MGC-803 cells incubated for 7 days by crystal violet staining based analysis; format: functional, cell-based; conditions: dose 24-40 nmol/L, time 7.0 day
MGC-803 [12] = assay: Induction of apoptosis in human MGC-803 cells assessed as viable cells at 10 nmol/L incubated for 48 hrs by Annexin V-FITC/propidium iodide staining based flow cytometer analysis (reference value: 93.08 %); format: functional; conditions: read-out: Activity
MGC-803 [13] = assay: Induction of apoptosis in human MGC-803 cells assessed as early apoptotic cells at 10 nmol/L incubated for 48 hrs by Annexin V-FITC/propidium iodide staining based flow cytometer analysis (reference value: 4.38 %); format: functional
MGC-803 [14] = assay: Induction of apoptosis in human MGC-803 cells assessed as late apoptotic cells at 10 nmol/L incubated for 48 hrs by Annexin V-FITC/propidium iodide staining based flow cytometer analysis (reference value: 2.22 %); format: functional
MGC-803 [15] = assay: Induction of apoptosis in human MGC-803 cells assessed as necrotic cells at 10 nmol/L incubated for 48 hrs by Annexin V-FITC/propidium iodide staining based flow cytometer analysis (reference value: 0.32 %); format: functional
MGC-803 [16] = assay: Induction of apoptosis in human MGC-803 cells assessed as necrotic cells at 20 nmol/L incubated for 48 hrs by Annexin V-FITC/propidium iodide staining based flow cytometer analysis (reference value: 0.32 %); format: functional
MGC-803 [17] = assay: Induction of apoptosis in human MGC-803 cells assessed as viable cells at 40 nmol/L incubated for 48 hrs by Annexin V-FITC/propidium iodide staining based flow cytometer analysis (reference value: 93.08 %); format: functional; conditions: read-out: Activity
MGC-803 [18] = assay: Induction of apoptosis in human MGC-803 cells assessed as early apoptotic cells at 40 nmol/L incubated for 48 hrs by Annexin V-FITC/propidium iodide staining based flow cytometer analysis (reference value: 4.38 %); format: functional
MGC-803 [19] = assay: Induction of apoptosis in human MGC-803 cells assessed as late apoptotic cells at 40 nmol/L incubated for 48 hrs by Annexin V-FITC/propidium iodide staining based flow cytometer analysis (reference value: 2.22 %); format: functional
MGC-803 [20] = assay: Induction of apoptosis in human MGC-803 cells assessed as caspase-9 cleavage at 10 to 40 nmol/L incubated for 48 hrs by Western blotting; format: functional, cell-based; conditions: dose 10-40 nmol/L
MGC-803 [21] = assay: Induction of apoptosis in human MGC-803 cells assessed as increase in cleaved PARP at 10 to 40 nmol/L incubated for 48 hrs by Western blotting; format: functional, cell-based; conditions: dose 10-40 nmol/L
MGC-803 [22] = assay: Anti-migratory activity against human MGC-803 cells assessed as inhibition of cell migration at 10 to 30 nmol/L measured for 48 hrs by crystal-violet staining based transwell migration assay; format: functional; conditions: dose 10-30 nmol/L
MGC-803 [23] = assay: Anti-migratory activity against human MGC-803 cells assessed as decrease in MMP-2 level at 10 to 40 nmol/L by Western blotting; format: functional, cell-based; conditions: dose 10-40 nmol/L
MGC-803 [24] = assay: Antitumor activity against human MGC-803 cells xenografted in BALB/c-nude mouse assessed as tumor growth rate at 30 mg/kg/day, ip administered for 18 days relative to control; format: functional; conditions: time 18 day
MGC-803 [25] = assay: Antitumor activity against human MGC-803 cells xenografted in BALB/c-nude mouse assessed as tumor weight at 30 mg/kg/day, ip administered for 18 days (reference value: 0.656 g); format: functional; conditions: time 18 day
[26] = Toxicity in BALB/c-nude mouse xenografted with human MGC-803 cells assessed as change in body weight at 30 mg/kg/day, ip administered for 18 days; format: organism-based; conditions: in vivo, 432 h, time 18 day
[27] = Toxicity in BALB/c-nude mouse xenografted with human MGC-803 cells assessed as alteration in heart tissue at 30 mg/kg/day, ip administered for 18 days by hematoxylin and eosin staining based analysis; format: organism-based; conditions: in vivo, 432 h, time 18 day
[28] = Toxicity in BALB/c-nude mouse xenografted with human MGC-803 cells assessed as alteration in liver tissue at 30 mg/kg/day, ip administered for 18 days by hematoxylin and eosin staining based analysis; format: organism-based; conditions: in vivo, 432 h, time 18 day
[29] = Toxicity in BALB/c-nude mouse xenografted with human MGC-803 cells assessed as alteration in lung tissue at 30 mg/kg/day, ip administered for 18 days by hematoxylin and eosin staining based analysis; format: organism-based; conditions: in vivo, 432 h, time 18 day
[30] = Toxicity in BALB/c-nude mouse xenografted with human MGC-803 cells assessed as alteration in kidney tissue at 30 mg/kg/day, ip administered for 18 days by hematoxylin and eosin staining based analysis; format: organism-based; conditions: in vivo, 432 h, time 18 day

Compound: COc1ccc2c(c1)CCCN2c1cc(=O)oc2ccccc12
- IC50 (HCT-116): 81 nM
- IC50 (KYSE-30): 190 nM
- Activity (MGC-803 [1]): Dose-Dependent Effect
- Activity (MGC-803 [2]): Tde
- Activity (MGC-803 [3]): Active
- Activity (MGC-803 [4]): Active
- Activity (MGC-803 [5]): Active
- inhibition (Tubulin (Homo sapiens) [6]): Active
- inhibition (Tubulin (Homo sapiens) [7]): Active
- Activity [8]: Active
- Activity [9]: Active
- Activity (MGC-803 [10]): Active
- inhibition (MGC-803 [11]): Dose-Dependent Effect
- viability at 0.01 µM (MGC-803 [12]): 92.2%
- Activity (MGC-803 [13]): 4.68%
- Activity (MGC-803 [14]): 2.8%
- Activity (MGC-803 [15]): 0.34%
- Activity (MGC-803 [16]): 0.12%
- viability at 0.04 µM (MGC-803 [17]): 39.1%
- Activity (MGC-803 [18]): 41.97%
- Activity (MGC-803 [19]): 17.65%
- Activity (MGC-803 [20]): Active
- Activity (MGC-803 [21]): Active
- Activity (MGC-803 [22]): Active
- Activity (MGC-803 [23]): Active
- Activity (MGC-803 [24]): 25%
- Activity (MGC-803 [25]): 0.226 g
- Activity [26]: Non-Toxic
- Activity [27]: Non-Toxic
- Activity [28]: Non-Toxic
- Activity [29]: Non-Toxic
- Activity [30]: Non-Toxic

Reference: ChEMBL document CHEMBL5518178 (Eur J Med Chem, 2024)
